US20260184710A1, “CASITAS B-LINEAGE LYMPHOMA PROTOONCOGENE B (CBL-B) DEGRADING COMPOUNDS AND ASSOCIATED METHODS OF USE” (Arvinas Operations, Inc., priority 2022, published 2026)

Molecular target: T1, Cbl-b (Homo sapiens, UniProt Q13191)
T1 construct: Cbl-b-HiBit KI Jurkat Cells were purchased from Promega; host or cells: Cbl-b-HiBiT knock-in Jurkat cells
Test: Cbl-b Degradation Method B (Nano-Glo HiBiT lytic detection)
Type: cell-based
Settings: Cbl-b-HiBit KI Jurkat Cells, incubated at least 6-24 hours; for DC50: half maximal degradation, read-out: Cbl-b Degredation Method B IC50; for Dmax: maximum degradation observed, read-out: Cbl-b Degredation Method B Dmax (%)
Description: Cbl-b Degradation Method B [table] Cbl-b-HiBit KI Jurkat Cells were purchased from Promega, and cell media consisted of RPMI 1640 with 10% […] and 1% pen/strep. The cells were counted, measured for viability, and 35 μL of the cell solution was seeded into 384 well flat bottom plates at a ratio of 20,000 cells per 35 μL. After which, the plates were incubated for ˜24 hours at 37° C. and 5% CO2. Compounds were ordered from Evotec in a 384 well plate at a 1 mM top concentration in DMSO and serially diluted 1:3 in DMSO for an 11-point dose response. Using the Bravo instrument, 1 uL of compound solution or DMSO was transferred to 125 uL of media. Each well was treated with 5 μL of compound plus media mixture or DMO and subsequently incubated for at least 6-24 hours at 37° C. and 5% CO2. After incubation, 30 μL of either NanoGlo media was added to each cell, and the plates read on the Synergy Neo2 machine. The concentration of an exemplary compound that leads to half maximal degradation (DC50) as well as the maximum degradation observed (Dmax, conventionally expressed as a percentage of control) is shown below in Table 2.

T1 sequence (Q13191 whole entry): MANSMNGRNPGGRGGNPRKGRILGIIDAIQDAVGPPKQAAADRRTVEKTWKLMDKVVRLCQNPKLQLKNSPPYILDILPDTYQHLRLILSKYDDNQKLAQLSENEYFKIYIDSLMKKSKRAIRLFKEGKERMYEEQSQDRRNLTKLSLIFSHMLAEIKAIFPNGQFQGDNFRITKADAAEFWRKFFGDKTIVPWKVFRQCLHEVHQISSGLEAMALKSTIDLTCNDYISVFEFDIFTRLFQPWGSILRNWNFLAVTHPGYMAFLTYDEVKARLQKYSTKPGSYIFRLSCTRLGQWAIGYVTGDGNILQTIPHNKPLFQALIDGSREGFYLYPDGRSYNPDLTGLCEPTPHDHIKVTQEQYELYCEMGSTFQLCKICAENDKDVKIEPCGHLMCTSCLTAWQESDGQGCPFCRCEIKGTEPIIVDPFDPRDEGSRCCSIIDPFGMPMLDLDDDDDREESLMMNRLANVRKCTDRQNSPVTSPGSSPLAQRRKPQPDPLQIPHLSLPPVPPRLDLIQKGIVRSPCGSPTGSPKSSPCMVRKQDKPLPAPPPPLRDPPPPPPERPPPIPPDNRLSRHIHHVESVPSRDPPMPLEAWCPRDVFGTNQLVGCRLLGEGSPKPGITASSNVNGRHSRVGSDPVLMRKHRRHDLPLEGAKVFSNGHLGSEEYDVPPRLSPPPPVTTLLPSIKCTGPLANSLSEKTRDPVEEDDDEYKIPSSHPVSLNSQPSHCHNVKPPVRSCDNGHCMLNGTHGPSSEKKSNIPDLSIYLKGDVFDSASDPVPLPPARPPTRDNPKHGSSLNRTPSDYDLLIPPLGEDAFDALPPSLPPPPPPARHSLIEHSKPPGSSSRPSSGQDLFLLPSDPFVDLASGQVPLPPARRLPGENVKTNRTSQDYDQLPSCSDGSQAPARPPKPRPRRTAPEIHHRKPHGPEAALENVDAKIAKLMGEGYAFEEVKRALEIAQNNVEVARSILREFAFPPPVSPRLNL

SMILES | DC50 | Dmax
CC1c2c(cc(CN3CCN(C[C@H]4CC[C@H](OC5CCN(c6ccc7c(c6F)CN(C6CCC(=O)NC6=O)C7=O)CC5)CC4)CC3(C)C)cc2C(F)(F)F)C(=O)N1c1cccc(C2(Cc3nncn3C)COC2)c1 (stereo partly drawn) [Example 279, 3-[4-fluoro-1-oxo-5-(4-{[(1r, 4r)-4-[(3,3-dimethyl-4-{[1-methyl-2-(3-{3-[(4-methyl-4H-1,2,4-triazol-3-yl)methyl]oxetan-3-yl}phenyl)-3-oxo-7-(trifluoromethyl)-2,3-dihydro-1H-isoindol-5-yl]methyl}piperazin-1-yl)methyl]cyclohexyl]oxy}piperidin-1-yl)-2,3-dihydro-1H-isoindol-2-yl]piperidine-2,6-dione] | > 500 nM | 
Cn1cnnc1CC1(c2cccc(N3Cc4c(cc(CN5CC6(C5)CN(CC5CCN(c7ccc8c(c7)C(=O)N(C7CCC(=O)NC7=O)C8=O)CC5)C6)cc4C(F)(F)F)C3=O)c2)COC1 (stereo not drawn) [Example 68, 2-(2,6-dioxopiperidin-3-yl)-5-{4-[(6-{[2-(3-{3-[(4-methyl-4H-1,2,4-triazol-3-yl)methyl]oxetan-3-yl}phenyl)-3-oxo-7-(trifluoromethyl)-2,3-dihydro-1H-isoindol-5-yl]methyl}-2,6-diazaspiro[3.3]heptan-2-yl)methyl]piperidin-1-yl}-2,3-dihydro-1H-isoindole-1,3-dione] | > 500 nM | 
Cc1cc(N2CCC(CN3CCCN(c4cc5c(c(C(F)(F)F)c4)CN(c4cccc([C@]6(Cc7nncn7C)C[C@@H](C#N)C6)c4)C5=O)CC3)CC2)c(F)c2c1C(=O)N(C1CCC(=O)NC1=O)C2 (stereo partly drawn) [Example 170, (1r,3r)-3-(3-{6-[4-({1-[2-(2,6-dioxopiperidin-3-yl)-4-fluoro-7-methyl-1-oxo-2,3-dihydro-1H-isoindol-5-yl]piperidin-4-yl}methyl)-1,4-diazepan-1-yl]-1-oxo-4-(trifluoromethyl)-2,3-dihydro-1H-isoindol-2-yl}phenyl)-3-[(4-methyl-4H-1,2,4-triazol-3-yl)methyl]cyclobutane-1-carbonitrile] | > 500 nM | 
Cn1cnnc1CC1(c2cccc(N3Cc4c(cc(CN5CCC5CC5CCN(c6ccc7c(c6)C(=O)N(C6CCC(=O)NC6=O)C7=O)CC5)cc4C(F)(F)F)C3=O)c2)COC1 (stereo not drawn) [Example 70, 2-(2,6-dioxopiperidin-3-yl)-5-{4-[(1-{[2-(3-{3-[(4-methyl-4H-1,2,4-triazol-3-yl)methyl]oxetan-3-yl}phenyl)-3-oxo-7-(trifluoromethyl)-2,3-dihydro-1H-isoindol-5-yl]methyl}azetidin-2-yl)methyl]piperidin-1-yl}-2,3-dihydro-1H-isoindole-1,3-dione] | > 500 nM | 
CC1c2nc(N3CCC(O[C@H]4CC[C@H](CN5CCN(Cc6cc(C(F)(F)F)c7cn(-c8cccc(C9(Cc%10nncn%10C)CCC9)c8)nc7c6)C(C)(C)C5)CC4)CC3)ccc2C(=O)N1C1CCC(=O)NC1=O (relative stereo) [Example 255, rel-3-[7-methyl-5-oxo-2-(4-{[(1r,4r)-4-[(3,3-dimethyl-4-{[2-(3-{1-[(4-methyl-4H-1,2,4-triazol-3-yl)methyl]cyclobutyl}phenyl)-4-(trifluoromethyl)-2H-indazol-6-yl]methyl}piperazin-1-yl)methyl]cyclohexyl]oxy}piperidin-1-yl)-5H,6H,7H-pyrrolo[3,4-b]pyridin-6-yl]piperidine-2,6-dione] | > 500 nM | 

These reach a lower DC50. Values come first.

DC50 | Dmax | SMILES
< 5 nM | 35 to 70% | CC1c2nc(N3CCC(O[C@H]4CC[C@H](CN5C[C@H]6C[C@@H]5CN6Cc5cc6c(c(C(F)(F)F)c5)CN(c5cccc(C7(Cc8nncn8C)CCC7)c5)C6=O)CC4)CC3)ccc2C(=O)N1C1CCC(=O)NC1=O (stereo partly drawn) [Example 225, 3-[7-methyl-5-oxo-2-(4-{[(1r,4r)-4-{[(1R,4R)-5-{[2-(3-{1-[(4-methyl-4H-1,2,4-triazol-3-yl)methyl]cyclobutyl}phenyl)-3-oxo-7-(trifluoromethyl)-2,3-dihydro-1H-isoindol-5-yl]methyl}-2,5-diazabicyclo[2.2.1]heptan-2-yl]methyl}cyclohexyl]oxy}piperidin-1-yl)-5H,6H,7H-pyrrolo[3,4-b]pyridin-6-yl]piperidine-2,6-dione]
< 5 nM | 35 to 70% | Cn1cnnc1CC1(c2cccc(N3Cc4c(cc(CN5CCC[C@H](CN6CCN(C(=O)[C@H]7CC[C@@H](OC8CCN(c9ccc%10c(c9F)CN(C9CCC(=O)NC9=O)C%10=O)CC8)CC7)CC6)C5)cc4C(F)(F)F)C3=O)c2)COC1 (stereo partly drawn) [Example 113, 3-[4-fluoro-1-oxo-5-(4-{[(1r,4r)-4-(4-{[(3S)-1-{[2-(3-{3-[(4-methyl-4H-1,2,4-triazol-3-yl)methyl]oxetan-3-yl}phenyl)-3-oxo-7-(trifluoromethyl)-2,3-dihydro-1H-isoindol-5-yl]methyl}piperidin-3-yl]methyl}piperazine-1-carbonyl)cyclohexyl]oxy}piperidin-1-yl)-2,3-dihydro-1H-isoindol-2-yl]piperidine-2,6-dione]
< 5 nM | < 35% | CC1c2nc(N3CCC(O[C@H]4CC[C@H](CN5CCCN(c6cc7c(c(C(F)(F)F)c6)CN(c6cccc([C@]8(Cc9nncn9C)C[C@@H](C#N)C8)c6)C7=O)CC5)CC4)CC3)ccc2C(=O)N1C1CCC(=O)NC1=O (stereo partly drawn) [Example 180, (1r,3r)-3-[(4-methyl-4H-1,2,4-triazol-3-yl)methyl]-3-{3-[1-oxo-6-(4-{[(1r,4r)-4-({1-[6-(2,6-dioxopiperidin-3-yl)-7-methyl-5-oxo-5H,6H,7H-pyrrolo[3,4-b]pyridin-2-yl]piperidin-4-yl}oxy)cyclohexyl]methyl}-1,4-diazepan-1-yl)-4-(trifluoromethyl)-2,3-dihydro-1H-isoindol-2-yl]phenyl}cyclobutane-1-carbonitrile]
< 5 nM | 35 to 70% | CC1c2nc(N3CCC(O[C@H]4CC[C@H](CN5[C@H](C)CN(Cc6cc7c(c(C(F)(F)F)c6)CN(c6cccc(C8(Cc9nncn9C)COC8)c6)C7=O)C[C@H]5C)CC4)CC3)ccc2C(=O)N1C1CCC(=O)NC1=O (stereo partly drawn) [Example 250, 3-[7-methyl-5-oxo-2-(4-{[(1r*,4r*)-4-{[(2R,6R)-2,6-dimethyl-4-{[2-(3-{3-[(4-methyl-4H-1,2,4-triazol-3-yl)methyl]oxetan-3-yl}phenyl)-3-oxo-7-(trifluoromethyl)-2,3-dihydro-1H-isoindol-5-yl]methyl}piperazin-1-yl]methyl}cyclohexyl]oxy}piperidin-1-yl)-5H,6H,7H-pyrrolo[3,4-b]pyridin-6-yl]piperidine-2,6-dione]
< 5 nM | > 70% | Cc1cc(N2CCC(CN3CCC4(CC3)CN(c3cc5c(c(C(F)(F)F)c3)CN(c3cccc(C6(Cc7nncn7C)COC6)c3)C5=O)C4)CC2)c(F)c2c1C(=O)N(C1CCC(=O)NC1=O)C2 (stereo not drawn) [Example 12, 3-{4-fluoro-7-methyl-5-[4-({2-[2-(3-{3-[(4-methyl-4H-1,2,4-triazol-3-yl)methyl]oxetan-3-yl}phenyl)-3-oxo-7-(trifluoromethyl)-2,3-dihydro-1H-isoindol-5-yl]-2,7-diazaspiro [3.5]nonan-7-yl}methyl)piperidin-1-yl]-1-oxo-2,3-dihydro-1H-isoindol-2-yl}piperidine-2,6-dione]
